This note sets out measurements from paper PMC5218480 (PLoS ONE, 2017).

The test relates to MV-4-11 cells. In words: Gene expression microarray analysis (Affymetrix PrimeView) and GSEA. In kind it is cell-based, human. Particulars: ProbeSet 11749551_a_at; LIST B. Set-up: RFU PODN (11730768_x_at) / Fold change /veh PODN (11730768_x_at) / RFU LINC00158 (11744669_a_at) / Fold change /veh LINC00158 (11744669_a_at) / RFU DUSP10 (11751237_a_at) / Fold change /veh DUSP10 (11751237_a_at) / RFU ID3 (11757404_x_at) / Fold change /veh ID3 (11757404_x_at) / RFU PLEKHG5 (11737974_s_at) / Fold change /veh PLEKHG5 (11737974_s_at) / RFU LRRC4B (11730491_at) / Fold change /veh LRRC4B (11730491_at) / RFU GIMAP4 (11747438_a_at) / Fold change /veh GIMAP4 (11747438_a_at) / RFU KRT8 (11758183_x_at) / Fold change /veh KRT8 (11758183_x_at) / RFU CNN1 (11734310_a_at) / Fold change /veh CNN1 (11734310_a_at) / RFU VPS37D (11726825_at) / Fold change /veh VPS37D (11726825_at) / RFU C10orf10 (11716522_x_at) / Fold change /veh C10orf10 (11716522_x_at) / RFU KIR2DL2 /// KIR2DL4 /// KIR2DL5A /// KIR2DL5B /// KIR2DS1 /// KIR2DS2 /// KIR2DS3 /// KIR2DS4 /// KIR3DL3 /// KIR3DL3 /// KIR3DS1 (11738374_at) / Fold change /veh KIR2DL2 /// KIR2DL4 /// KIR2DL5A /// KIR2DL5B /// KIR2DS1 /// KIR2DS2 /// KIR2DS3 /// KIR2DS4 /// KIR3DL3 /// KIR3DL3 /// KIR3DS1 (11738374_at) / RFU C1QL1 (11718748_at) / Fold change /veh C1QL1 (11718748_at) / RFU TMPRSS4 (11747572_a_at) / Fold change /veh TMPRSS4 (11747572_a_at) / RFU HAMP (11756126_x_at) / Fold change /veh HAMP (11756126_x_at) / RFU RNFT2 (11725882_a_at) / Fold change /veh RNFT2 (11725882_a_at) / RFU NR4A2 (11747474_a_at) / Fold change /veh NR4A2 (11747474_a_at) / RFU ABCC12 (11746883_a_at) / Fold change /veh ABCC12 (11746883_a_at) / RFU TMEM136 (11760407_x_at) / Fold change /veh TMEM136 (11760407_x_at) / RFU CLDN22 /// WWC2 (11732394_at) / Fold change /veh CLDN22 /// WWC2 (11732394_at) / RFU HLA-DPB1 (11760878_x_at) / Fold change /veh HLA-DPB1 (11760878_x_at) / RFU SPINT1 (11716480_a_at) / Fold change /veh SPINT1 (11716480_a_at) / RFU GAP43 (11754022_s_at) / Fold change /veh GAP43 (11754022_s_at) / RFU A4GNT (11735810_at) / Fold change /veh A4GNT (11735810_at) / RFU PRB3 (11715151_x_at) / Fold change /veh PRB3 (11715151_x_at) / RFU TUBB4B (11761932_at) / Fold change /veh TUBB4B (11761932_at) / RFU CAPN14 (11732068_a_at) / Fold change /veh CAPN14 (11732068_a_at) / RFU TMCC2 (11721928_a_at) / Fold change /veh TMCC2 (11721928_a_at) / RFU IRGQ (11745062_a_at) / Fold change /veh IRGQ (11745062_a_at) / RFU FAM174B (11720279_a_at) / Fold change /veh FAM174B (11720279_a_at) / RFU TMPRSS4 (11748680_a_at) / Fold change /veh TMPRSS4 (11748680_a_at) / RFU FAM212B (11763350_a_at) / Fold change /veh FAM212B (11763350_a_at) / RFU PLEKHG5 (11743358_a_at) / Fold change /veh PLEKHG5 (11743358_a_at) / RFU ZSCAN30 (11745921_a_at) / Fold change /veh ZSCAN30 (11745921_a_at) / RFU CMKLR1 (11741424_a_at) / Fold change /veh CMKLR1 (11741424_a_at) / RFU LOC101060620 /// MAPK8IP1 (11723275_at) / Fold change /veh LOC101060620 /// MAPK8IP1 (11723275_at) / RFU SPTSSB (11747773_x_at) / Fold change /veh SPTSSB (11747773_x_at) / RFU PRSS12 (11739890_at) / Fold change /veh PRSS12 (11739890_at) / RFU BIN1 (11741810_x_at) / Fold change /veh BIN1 (11741810_x_at) / RFU WNT11 (11732464_a_at) / Fold change /veh WNT11 (11732464_a_at) / RFU C10orf10 (11716521_a_at) / Fold change /veh C10orf10 (11716521_a_at) / RFU C5orf56 (11738089_at) / Fold change /veh C5orf56 (11738089_at) / RFU CYB561 (11721691_x_at) / Fold change /veh CYB561 (11721691_x_at) / RFU ANKRD19P (11752326_a_at) / Fold change /veh ANKRD19P (11752326_a_at) / RFU OR2T12 /// OR2T33 /// OR2T8 (11738714_s_at) / Fold change /veh OR2T12 /// OR2T33 /// OR2T8 (11738714_s_at) / RFU VCAN (11748164_a_at) / Fold change /veh VCAN (11748164_a_at) / RFU JSRP1 (11732532_at) / Fold change /veh JSRP1 (11732532_at) / RFU KRTAP10-11 (11738290_x_at) / Fold change /veh KRTAP10-11 (11738290_x_at) / RFU MYO3A (11730013_a_at) / Fold change /veh MYO3A (11730013_a_at) / RFU EBF3 (11725865_a_at) / Fold change /veh EBF3 (11725865_a_at) / RFU CAMK2N1 (11719241_x_at) / Fold change /veh CAMK2N1 (11719241_x_at) / RFU C5orf56 (11738088_a_at) / Fold change /veh C5orf56 (11738088_a_at) / RFU OLFML3 (11715873_a_at) / Fold change /veh OLFML3 (11715873_a_at) / RFU LOC100653217 /// NTM (11731650_a_at) / Fold change /veh LOC100653217 /// NTM (11731650_a_at) / RFU MAPK11 (11762145_a_at) / Fold change /veh MAPK11 (11762145_a_at) / RFU FIZ1 (11724087_x_at) / Fold change /veh FIZ1 (11724087_x_at) / RFU OASL (11726364_x_at) / Fold change /veh OASL (11726364_x_at) / RFU SOX15 (11748057_x_at) / Fold change /veh SOX15 (11748057_x_at) / RFU CD79A (11719716_a_at) / Fold change /veh CD79A (11719716_a_at) / RFU HIST1H1D (11736915_at) / Fold change /veh HIST1H1D (11736915_at) / RFU CASKIN2 (11723855_a_at) / Fold change /veh CASKIN2 (11723855_a_at) / RFU LOC730098 (11760151_x_at) / Fold change /veh LOC730098 (11760151_x_at) / RFU OR4N2 (11742367_at) / Fold change /veh OR4N2 (11742367_at) / RFU PRRT2 (11749266_a_at) / Fold change /veh PRRT2 (11749266_a_at) / RFU SNX32 (11753110_a_at) / Fold change /veh SNX32 (11753110_a_at) / RFU CDHR5 (11726645_a_at) / Fold change /veh CDHR5 (11726645_a_at) / RFU RCAN1 (11760418_a_at) / Fold change /veh RCAN1 (11760418_a_at) / RFU FAM167A (11723789_a_at) / Fold change /veh FAM167A (11723789_a_at) / RFU FAM26E (11764081_at) / Fold change /veh FAM26E (11764081_at) / RFU ISYNA1 (11749810_s_at) / Fold change /veh ISYNA1 (11749810_s_at) / RFU ACY1 (11761880_at) / Fold change /veh ACY1 (11761880_at) / RFU 11764098_at / Fold change /veh 11764098_at / RFU SAMD14 (11745864_x_at) / Fold change /veh SAMD14 (11745864_x_at) / RFU NPB (11741838_a_at) / Fold change /veh NPB (11741838_a_at) / RFU TMPRSS6 (11731388_a_at) / Fold change /veh TMPRSS6 (11731388_a_at) / RFU KRTAP10-2 (11738614_at) / Fold change /veh KRTAP10-2 (11738614_at) / RFU ARHGAP8 /// PRR5-ARHGAP8 (11727945_x_at) / Fold change /veh ARHGAP8 /// PRR5-ARHGAP8 (11727945_x_at) / RFU KRTAP5-7 /// NADSYN1 (11734609_at) / Fold change /veh KRTAP5-7 /// NADSYN1 (11734609_at) / RFU RASL12 (11751679_a_at) / Fold change /veh RASL12 (11751679_a_at) / RFU CDKN2B (11736163_a_at) / Fold change /veh CDKN2B (11736163_a_at) / RFU PRF1 (11729649_at) / Fold change /veh PRF1 (11729649_at) / RFU, ZNF638 /// ZNF638-IT1 / Fold change vs veh, ZNF638 /// ZNF638-IT1 / RFU, PANK3 / Fold change vs veh, PANK3 / RFU, SH3YL1 / Fold change vs veh, SH3YL1 / RFU, ZEB2 / Fold change vs veh, ZEB2 / RFU, NRIP1 / Fold change vs veh, NRIP1 / RFU, PTTG1IP / Fold change vs veh, PTTG1IP / RFU, CAPN2 / Fold change vs veh, CAPN2 / RFU, MED14 / Fold change vs veh, MED14 / RFU, SNORA58 / Fold change vs veh, SNORA58 / RFU, C1orf63 / Fold change vs veh, C1orf63 / RFU, LRRFIP1 / Fold change vs veh, LRRFIP1 / RFU, NDUFAF7 / Fold change vs veh, NDUFAF7 / RFU, SLC12A2 / Fold change vs veh, SLC12A2 / RFU, IBTK / Fold change vs veh, IBTK / RFU, ESF1 / Fold change vs veh, ESF1 / Fold change vs veh, TMEM50B / RFU, TAOK1 / Fold change vs veh, TAOK1 / RFU, ACBD3 / Fold change vs veh, ACBD3 / RFU, TMA16 / Fold change vs veh, TMA16 / RFU, RWDD3 / Fold change vs veh, RWDD3 / RFU, BCAT1 / Fold change vs veh, BCAT1 / RFU, EDEM3 / Fold change vs veh, EDEM3 / RFU, TMEM33 / Fold change vs veh, TMEM33 / RFU, WDR75 / Fold change vs veh, WDR75 / RFU, AHCTF1 / Fold change vs veh, AHCTF1 / RFU, TFRC / Fold change vs veh, TFRC / RFU, ZDHHC17 / Fold change vs veh, ZDHHC17 / RFU, NOM1 / Fold change vs veh, NOM1 / RFU, ARL8B / Fold change vs veh, ARL8B / RFU, ZBTB11 / Fold change vs veh, ZBTB11 / RFU, TAMM41 / Fold change vs veh, TAMM41 / RFU, KIAA1704 /// LOC100996395 / Fold change vs veh, KIAA1704 /// LOC100996395 / RFU, ING1 / Fold change vs veh, ING1 / RFU, TRMT61B / Fold change vs veh, TRMT61B / RFU, FUBP3 / Fold change vs veh, FUBP3 / RFU, TP53 / Fold change vs veh, TP53 / RFU, TNKS2 / Fold change vs veh, TNKS2 / RFU, ZFP14 / Fold change vs veh, ZFP14 / RFU, ACTR2 / Fold change vs veh, ACTR2 / RFU, PPP3R1 / Fold change vs veh, PPP3R1 / RFU, PIK3R1 / Fold change vs veh, PIK3R1 / RFU, HNRNPA1 / Fold change vs veh, HNRNPA1 / RFU, RNF170 / Fold change vs veh, RNF170 / RFU, ZNF28 / Fold change vs veh, ZNF28 / RFU, RNGTT / Fold change vs veh, RNGTT / RFU, OGT / Fold change vs veh, OGT / RFU, BRD1 / Fold change vs veh, BRD1 / RFU, MARS / Fold change vs veh, MARS / RFU, ZNF655 / Fold change vs veh, ZNF655 / RFU, FAHD1 / Fold change vs veh, FAHD1 / RFU, BDP1 / Fold change vs veh, BDP1 / RFU, LRRCC1 / Fold change vs veh, LRRCC1 / RFU, ARID1A / Fold change vs veh, ARID1A / RFU, ZNF146 / Fold change vs veh, ZNF146 / RFU, ZNF330 / Fold change vs veh, ZNF330 / RFU, GPN3 / Fold change vs veh, GPN3 / RFU, C9orf123 / Fold change vs veh, C9orf123 / RFU, N4BP2L2 / Fold change vs veh, N4BP2L2 / RFU, ARFIP1 / Fold change vs veh, ARFIP1 / RFU, FAM179B / Fold change vs veh, FAM179B / RFU, BCL10 / Fold change vs veh, BCL10 / RFU, UHRF1BP1L / Fold change vs veh, UHRF1BP1L / RFU, BET1 / Fold change vs veh, BET1 / RFU, CNOT2 / Fold change vs veh, CNOT2 / RFU, ZNF268 / Fold change vs veh, ZNF268 / Fold change vs veh, ZNF507 / RFU, DGCR2 / Fold change vs veh, DGCR2 / RFU, WDSUB1 / Fold change vs veh, WDSUB1 / Fold change vs veh, HSP90B1 /// MIR3652 / RFU, ADSS / Fold change vs veh, ADSS / RFU, GK / Fold change vs veh, GK / RFU, ZNF148 / Fold change vs veh, ZNF148 / RFU, TAF9 / Fold change vs veh, TAF9 / RFU, SLC1A5 / Fold change vs veh, SLC1A5 / RFU, SLMO2 / Fold change vs veh, SLMO2 / RFU, ABCC4 / Fold change vs veh, ABCC4 / RFU, LOC101060439 /// RAP1B / Fold change vs veh, LOC101060439 /// RAP1B / RFU, RFX7 / Fold change vs veh, RFX7 / RFU, GTPBP10 / Fold change vs veh, GTPBP10 / RFU, CNEP1R1 / Fold change vs veh, CNEP1R1 / RFU, BIVM-ERCC5 /// ERCC5 / Fold change vs veh, BIVM-ERCC5 /// ERCC5 / RFU, ILF3 / Fold change vs veh, ILF3 / RFU 11762660_at / Fold change /veh 11762660_at / RFU VCAN (11757783_s_at) / Fold change /veh VCAN (11757783_s_at) / RFU DDX43 (11728927_at) / Fold change /veh DDX43 (11728927_at) / RFU KRT8 (11758188_x_at) / Fold change /veh KRT8 (11758188_x_at) / RFU NKD1 (11759106_at) / Fold change /veh NKD1 (11759106_at) / RFU SRD5A1 (11742802_a_at) / Fold change /veh SRD5A1 (11742802_a_at) / RFU TPSAB1 /// TPSB2 (11721975_s_at) / Fold change /veh TPSAB1 /// TPSB2 (11721975_s_at) / RFU GSTM3 (11746129_a_at) / Fold change /veh GSTM3 (11746129_a_at) / RFU IL23R (11737362_x_at) / Fold change /veh IL23R (11737362_x_at) / RFU TMEM51 (11727254_a_at) / Fold change /veh TMEM51 (11727254_a_at) / RFU PIWIL2 (11732686_x_at) / Fold change /veh PIWIL2 (11732686_x_at) / RFU ORM1 (11744905_x_at) / Fold change /veh ORM1 (11744905_x_at) / RFU CCDC152 (11743942_at) / Fold change /veh CCDC152 (11743942_at) / RFU ECM1 (11717891_a_at) / Fold change /veh ECM1 (11717891_a_at) / RFU IL23R (11748794_a_at) / Fold change /veh IL23R (11748794_a_at) / RFU TNFAIP8L3 (11732012_x_at) / Fold change /veh TNFAIP8L3 (11732012_x_at) / RFU MBOAT4 (11741988_at) / Fold change /veh MBOAT4 (11741988_at) / RFU 11764193_at / Fold change /veh 11764193_at / RFU TMEM53 (11763286_at) / Fold change /veh TMEM53 (11763286_at) / RFU MAGEB2 (11727129_at) / Fold change /veh MAGEB2 (11727129_at) / RFU TMEM200A (11744735_a_at) / Fold change /veh TMEM200A (11744735_a_at) / RFU CCDC152 (11751479_a_at) / Fold change /veh CCDC152 (11751479_a_at) / RFU FAM211A (11726209_a_at) / Fold change /veh FAM211A (11726209_a_at) / RFU RGS16 (11746705_a_at) / Fold change /veh RGS16 (11746705_a_at) / RFU VCAN (11755009_s_at) / Fold change /veh VCAN (11755009_s_at) / RFU RHOB (11743442_s_at) / Fold change /veh RHOB (11743442_s_at) / RFU RGS16 (11720943_a_at) / Fold change /veh RGS16 (11720943_a_at) / RFU RGS16 (11720944_at) / Fold change /veh RGS16 (11720944_at) / RFU, VPS4B / Fold change vs veh, VPS4B / RFU, CREB1 / Fold change vs veh, CREB1 / RFU, DNAJC13 / Fold change vs veh, DNAJC13 / RFU, GNAQ / Fold change vs veh, GNAQ / RFU, CDK5R1 / Fold change vs veh, CDK5R1 / RFU, ZRANB3 / Fold change vs veh, ZRANB3 / RFU, CUL4A / Fold change vs veh, CUL4A / RFU, CCNY / Fold change vs veh, CCNY / RFU, UFL1 / Fold change vs veh, UFL1 / RFU, COG3 / Fold change vs veh, COG3 / RFU, DIAPH2 / Fold change vs veh, DIAPH2 / RFU, SKA2 / Fold change vs veh, SKA2 / RFU, AFF3 / Fold change vs veh, AFF3 / RFU, LMF1 / Fold change vs veh, LMF1 / RFU, IPO11 / Fold change vs veh, IPO11 / RFU, DFFB / Fold change vs veh, DFFB / RFU, FOXP1 / Fold change vs veh, FOXP1 / RFU, CARD8 / Fold change vs veh, CARD8 / RFU, STRN3 / Fold change vs veh, STRN3 / RFU, ADK / Fold change vs veh, ADK / RFU, RASSF2 / Fold change vs veh, RASSF2 / RFU, WIPF1 / Fold change vs veh, WIPF1 / RFU, LARP1B / Fold change vs veh, LARP1B / RFU, RASA1 / Fold change vs veh, RASA1 / RFU, RB1 / Fold change vs veh, RB1 / RFU, PPFIA1 / Fold change vs veh, PPFIA1 / RFU, MAT2A / Fold change vs veh, MAT2A / RFU, CCT5 / Fold change vs veh, CCT5 / RFU, WDR92 / Fold change vs veh, WDR92 / RFU, CUX1 / Fold change vs veh, CUX1 / RFU, TTC7A / Fold change vs veh, TTC7A / RFU, TMEM135 / Fold change vs veh, TMEM135 / RFU, DEPTOR / Fold change vs veh, DEPTOR / RFU, CPM / Fold change vs veh, CPM / RFU, DNAJB6 / Fold change vs veh, DNAJB6 / RFU, CACNA2D3 / Fold change vs veh, CACNA2D3 / RFU, DTX4 / Fold change vs veh, DTX4 / RFU, TFCP2 / Fold change vs veh, TFCP2 / RFU, GMCL1 /// GMCL1P1 / Fold change vs veh, GMCL1 /// GMCL1P1 / RFU, AEBP2 / Fold change vs veh, AEBP2 / RFU, SNHG1 /// SNORD22 /// SNORD25 /// SNORD26 /// SNORD27 /// SNORD28 /// SNORD29 /// SNORD31 / Fold change vs veh, SNHG1 /// SNORD22 /// SNORD25 /// SNORD26 /// SNORD27 /// SNORD28 /// SNORD29 /// SNORD31 / Fold change (Aza/veh), C12orf56 (ProbeSet 11735607_a_at) / Fold change (ACY-1035/veh), C12orf56 (ProbeSet 11735607_a_at) / Fold change (Aza/veh), FGFR1OP (ProbeSet 11751329_s_at) / Fold change (ACY-1035/veh), FGFR1OP (ProbeSet 11751329_s_at) / Fold change (Aza/veh), VPS36 (ProbeSet 11739960_a_at) / Fold change (ACY-1035/veh), VPS36 (ProbeSet 11739960_a_at) / RFU SYPL1 (11715823_x_at) / Fold change /veh SYPL1 (11715823_x_at) / RFU IGFBP7 (11715501_s_at) / Fold change /veh IGFBP7 (11715501_s_at) / RFU REEP3 (11722064_at) / Fold change /veh REEP3 (11722064_at) / RFU IGLL1 (11728026_x_at) / Fold change /veh IGLL1 (11728026_x_at): dose or concentration left out as unconfirmed.

For `Nc1ncn([C@@H]2O[C@H](CO)[C@@H](O)[C@H]2O)c(=O)n1` [azacitidine], the “RFU, RNGTT” value turned out to be 56.67 RFU.
